Here are results for 40 compounds from US20240299385A1 (ReWind Therapeutics NV, priority 2021, published 2024).

SMILES strings stand for the structures. pIC50: −log10 of the molar value.

T1 sequence (Q13304 whole entry): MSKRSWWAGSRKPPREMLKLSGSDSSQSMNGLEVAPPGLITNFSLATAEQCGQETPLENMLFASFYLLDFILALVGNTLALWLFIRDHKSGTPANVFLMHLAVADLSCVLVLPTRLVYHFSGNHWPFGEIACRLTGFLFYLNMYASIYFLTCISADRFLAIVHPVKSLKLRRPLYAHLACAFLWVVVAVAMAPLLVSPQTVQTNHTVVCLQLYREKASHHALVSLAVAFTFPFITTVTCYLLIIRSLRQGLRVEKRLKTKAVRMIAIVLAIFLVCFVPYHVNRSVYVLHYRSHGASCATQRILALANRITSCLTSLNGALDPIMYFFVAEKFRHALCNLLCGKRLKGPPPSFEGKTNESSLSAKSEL

This test has as its target T1, human GPR17 receptor (Homo sapiens, UniProt Q13304).
T1 construct: host or cells: HEK-293
The experiment in a line: Calcium mobilization functional assay (Fluo-8, FLIPR TETRA) in HEK-293 hGPR17 (Gα-q assay). The format is cell-based. The note with it: antagonism of MDL29,951 (~EC80) induced Ca2+ signal; cell line (HEK-293 hGPR17 or HEK-293 Suchi5 hGPR17) not given. The method in brief: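 Fluo-8-loaded HEK-293 hGPR17 cells (60 min dye loading, room temperature) were preincubated with compound for twenty minutes, then challenged with agonist MDL29,951 at ~EC80, 500 nM. Intracellular calcium release via Gα-q was recorded as FLIPR fluorescence for a further 2 minutes; compounds tested in duplicate.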
In the case of `O=S(=O)(Nc1cc(OC(F)F)c(Cl)cc1F)c1c[nH]c(-c2ccccc2)c1` [Cpd 399, N-[4-chloro-5-(difluoromethoxy)-2-fluorophenyl]-5-phenyl-1H-pyrrole-3-sulfonamide], the pIC50 (commonly −log10 of the IC50, conventionally taken in molar units) was 5.30 to 6.30. Turning to `N#Cc1ccc(NS(=O)(=O)c2c[nH]cc2-c2ccsc2)c(F)c1` [Cpd 400, N-(4-cyano-2-fluorophenyl)-4-thiophen-3-yl-1H-pyrrole-3-sulfonamide], the negative-log IC50 (pIC50) was 5.30 to 6.30. Turning to `Cc1cc(-c2c[nH]cc2S(=O)(=O)Nc2ccc(C#N)cc2F)cs1` [Cpd 401, N-(4-cyano-2-fluorophenyl)-4-(5-methylthiophen-3-yl)-1H-pyrrole-3-sulfonamide], the pIC50 was greater than 6.30.

Take `N#Cc1ccc(NS(=O)(=O)c2c[nH]cc2-c2cccc(C3CC3)c2)c(F)c1` [Cpd 402, N-(4-cyano-2-fluorophenyl)-4-(3-cyclopropylphenyl)-1H-pyrrole-3-sulfonamide]: the pIC50 is 4.30 to 5.30. Consider `O=S(=O)(Nc1cc(F)c(OC(F)F)cc1F)c1c[nH]c(-c2nccs2)c1` [Cpd 403, N-[4-(difluoromethoxy)-2,5-difluorophenyl]-5-(1,3-thiazol-2-yl)-1H-pyrrole-3-sulfonamide], for which the pIC50 is greater than 6.30.

As to `O=S(=O)(Nc1cc(F)c(OC(F)F)cc1F)c1c[nH]c(-c2ncccc2F)c1` [Cpd 404, N-[4-(difluoromethoxy)-2,5-difluorophenyl]-5-(3-fluoropyridin-2-yl)-1H-pyrrole-3-sulfonamide], the negative logarithm of the IC50 (pIC50) was greater than 6.30. Take `N#Cc1cc(F)c(NS(=O)(=O)c2c[nH]cc2Cc2ccccc2)cc1F` [Cpd 407, 4-benzyl-N-(4-cyano-2,5-difluorophenyl)-1H-pyrrole-3-sulfonamide]: the pIC50 was greater than 6.30.

For the compound `O=S(=O)(Nc1ncc(OC(F)F)cc1F)c1c[nH]c(-c2ccccc2)c1` [Cpd 408, N-[5-(difluoromethoxy)-3-fluoropyridin-2-yl]-5-phenyl-1H-pyrrole-3-sulfonamide], the pIC50 is 5.30 to 6.30.

In the case of `O=S(=O)(Nc1cc(F)c(OC(F)F)cc1F)c1c[nH]c(-c2ccccc2F)c1` [Cpd 409, N-[4-(difluoromethoxy)-2,5-difluorophenyl]-5-(2-fluorophenyl)-1H-pyrrole-3-sulfonamide], the pIC50 is greater than 6.30. In the case of `O=S(=O)(Nc1cc(F)c(OC(F)F)cc1F)c1c[nH]c(-c2cc(Cl)ccc2F)c1` [Cpd 410, 5-(5-chloro-2-fluorophenyl)-N-[4-(difluoromethoxy)-2,5-difluorophenyl]-1H-pyrrole-3-sulfonamide], the pIC50 is 5.30 to 6.30.

As to `O=S(=O)(Nc1cc(F)c(OC(F)F)cc1F)c1c[nH]c(-c2ccc(F)cc2)c1` [Cpd 411, N-[4-(difluoromethoxy)-2,5-difluorophenyl]-5-(4-fluorophenyl)-1H-pyrrole-3-sulfonamide], the pIC50 is 5.30 to 6.30.

`O=S(=O)(Nc1cc(F)c(OC(F)F)cc1F)c1c[nH]c(-c2ccc(F)cc2F)c1` [Cpd 412, N-[4-(difluoromethoxy)-2,5-difluorophenyl]-5-(2,4-difluorophenyl)-1H-pyrrole-3-sulfonamide]: the pIC50 is 5.30 to 6.30.

With `O=S(=O)(Nc1cc(F)c(Br)cc1F)c1c[nH]c(-c2ccccc2F)c1` [Cpd 413, N-(4-bromo-2,5-difluorophenyl)-5-(2-fluorophenyl)-1H-pyrrole-3-sulfonamide], the pIC50 is greater than 6.30. As to `O=S(=O)(Nc1cc(F)c(Br)cc1F)c1c[nH]c(-c2cc(Cl)ccc2F)c1` [Cpd 414, N-(4-bromo-2,5-difluorophenyl)-5-(5-chloro-2-fluorophenyl)-1H-pyrrole-3-sulfonamide], the pIC50 was 5.30 to 6.30.

Consider `N#CCOc1cc(F)c(NS(=O)(=O)c2c[nH]cc2Cc2ccccc2)cc1F` [Cpd 415, 4-benzyl-N-[4-(cyanomethoxy)-2,5-difluorophenyl]-1H-pyrrole-3-sulfonamide], for which the pIC50 is 5.30 to 6.30. As for `N#Cc1cc(F)c(NS(=O)(=O)c2c[nH]cc2Cc2cccs2)cc1F` [Cpd 416, N-(4-cyano-2,5-difluorophenyl)-4-(thiophen-2-ylmethyl)-1H-pyrrole-3-sulfonamide], the pIC50 is greater than 6.30. `O=S(=O)(Nc1cc(F)c(Br)cc1F)c1c[nH]cc1Cc1cccs1` [Cpd 417, N-(4-bromo-2,5-difluorophenyl)-4-(thiophen-2-ylmethyl)-1H-pyrrole-3-sulfonamide]: the pIC50 is 5.30 to 6.30.

Take `O=S(=O)(Nc1cc(F)c(C(F)(F)F)cc1F)c1c[nH]cc1Cc1cccs1` [Cpd 418, N-[2,5-difluoro-4-(trifluoromethyl)phenyl]-4-(thiophen-2-ylmethyl)-1H-pyrrole-3-sulfonamide]: the pIC50 is greater than 6.30. With `O=S(=O)(Nc1cc(OC(F)F)c(Cl)cc1F)c1c[nH]c(-c2ccccn2)c1` [Cpd 419, N-[4-chloro-5-(difluoromethoxy)-2-fluorophenyl]-5-pyridin-2-yl-1H-pyrrole-3-sulfonamide], the pIC50 is 5.30 to 6.30. For the compound `Cc1ccc(-c2c[nH]cc2S(=O)(=O)Nc2ccc(C#N)cc2F)s1` [Cpd 420, N-(4-cyano-2-fluorophenyl)-4-(5-methylthiophen-2-yl)-1H-pyrrole-3-sulfonamide], the pIC50 was greater than 6.30.

With `N#Cc1ccc(NS(=O)(=O)c2c[nH]c(C3CCCCC3)c2)c(F)c1` [Cpd 421, N-(4-cyano-2-fluorophenyl)-5-cyclohexyl-1H-pyrrole-3-sulfonamide], the pIC50 was 5.30 to 6.30. Turning to `COc1nc(Cl)c(F)cc1NS(=O)(=O)c1c[nH]c(-c2ccccc2)c1` [Cpd 422, N-(6-chloro-5-fluoro-2-methoxypyridin-3-yl)-5-phenyl-1H-pyrrole-3-sulfonamide], the pIC50 is greater than 6.30. The same measure for `O=S(=O)(Nc1cc(F)c(C(F)(F)F)cc1F)c1c[nH]c(C2CCCCC2)c1` [Cpd 423, 5-cyclohexyl-N-[2,5-difluoro-4-(trifluoromethyl)phenyl]-1H-pyrrole-3-sulfonamide]: 5.30 to 6.30. Take `O=S(=O)(Nc1cc(F)c(C(F)(F)F)cc1F)c1c[nH]c(C2CCOC2)c1` (stereo not shown) [Cpd 424, N-[2,5-difluoro-4-(trifluoromethyl)phenyl]-5-(oxolan-3-yl)-1H-pyrrole-3-sulfonamide]: the pIC50 was 5.30 to 6.30. Turning to `O=S(=O)(Nc1cc(OC(F)F)c(Cl)cc1F)c1c[nH]cc1-c1cccc(F)c1` [Cpd 425, N-[4-chloro-5-(difluoromethoxy)-2-fluorophenyl]-4-(3-fluorophenyl)-1H-pyrrole-3-sulfonamide], the pIC50 is 5.30 to 6.30. On to `O=S(=O)(Nc1cc(OC(F)F)c(Cl)cc1F)c1c[nH]cc1Cc1ccccc1` [Cpd 426, 4-benzyl-N-[4-chloro-5-(difluoromethoxy)-2-fluorophenyl]-1H-pyrrole-3-sulfonamide], for which the pIC50 is 5.30 to 6.30. As to `COc1nc(Cl)c(F)cc1NS(=O)(=O)c1c[nH]cc1Cc1ccccc1` [Cpd 427, 4-benzyl-N-(6-chloro-5-fluoro-2-methoxypyridin-3-yl)-1H-pyrrole-3-sulfonamide], the pIC50 was 5.30 to 6.30. As for `COc1nc(Cl)c(F)cc1NS(=O)(=O)c1c[nH]cc1-c1cccc(F)c1` [Cpd 428, N-(6-chloro-5-fluoro-2-methoxypyridin-3-yl)-4-(3-fluorophenyl)-1H-pyrrole-3-sulfonamide], the pIC50 was 5.30 to 6.30. On to `COc1cc(OC(F)F)cnc1NS(=O)(=O)c1c[nH]c(-c2ccccc2)c1` [Cpd 429, N-[5-(difluoromethoxy)-3-methoxypyridin-2-yl]-5-phenyl-1H-pyrrole-3-sulfonamide], for which the pIC50 was 5.30 to 6.30. `O=S(=O)(Nc1cc(F)c(C(F)(F)F)cc1F)c1c[nH]c(C2CCC2)c1` [Cpd 430, 5-cyclobutyl-N-(2,5-difluoro-4-(trifluoromethyl)phenyl)-1H-pyrrole-3-sulfonamide]: the pIC50 is greater than 6.30.

Consider `COc1nc(Br)cnc1NS(=O)(=O)c1c[nH]cc1Cc1ccccc1` [Cpd 431, 4-benzyl-N-(5-bromo-3-methoxypyrazin-2-yl)-1H-pyrrole-3-sulfonamide], for which the pIC50 was 4.30 to 5.30.

With `O=S(=O)(Nc1ncc(OCC(F)F)cc1F)c1c[nH]cc1Cc1ccccc1` [Cpd 432, 4-benzyl-N-[5-(2,2-difluoroethoxy)-3-fluoropyridin-2-yl]-1H-pyrrole-3-sulfonamide], the pIC50 was 5.30 to 6.30. Take `COc1cc(OC(F)F)cnc1NS(=O)(=O)c1c[nH]cc1Cc1ccccc1` [Cpd 433, 4-benzyl-N-[5-(difluoromethoxy)-3-methoxypyridin-2-yl]-1H-pyrrole-3-sulfonamide]: the pIC50 was 4.30 to 5.30. `O=S(=O)(Nc1ncc(OCC(F)F)cc1F)c1c[nH]c(-c2ccccc2)c1` [Cpd 434, N-[5-(2,2-difluoroethoxy)-3-fluoropyridin-2-yl]-5-phenyl-1H-pyrrole-3-sulfonamide]: the pIC50 was 5.30 to 6.30. The same measure for `COc1nc(Br)cnc1NS(=O)(=O)c1c[nH]c(-c2ccccc2)c1` [Cpd 435, N-(5-bromo-3-methoxypyrazin-2-yl)-5-phenyl-1H-pyrrole-3-sulfonamide]: 5.30 to 6.30; for `COc1nc(OCC(F)F)c(F)cc1NS(=O)(=O)c1c[nH]c(-c2ccccc2)c1` [Cpd 436, N-[6-(2,2-difluoroethoxy)-5-fluoro-2-methoxypyridin-3-yl]-5-phenyl-1H-pyrrole-3-sulfonamide]: greater than 6.30; for `N#Cc1ccc(NS(=O)(=O)c2c[nH]cc2-c2cccnc2)c(F)c1` [Cpd 437, N-(4-cyano-2-fluorophenyl)-4-(pyridin-3-yl)-1H-pyrrole-3-sulfonamide]: 4.30 to 5.30.

Take `O=S(=O)(Nc1ncc(OCC(F)F)cc1F)c1c[nH]cc1-c1cccc(F)c1` [Cpd 438, N-[5-(2,2-difluoroethoxy)-3-fluoropyridin-2-yl]-4-(3-fluorophenyl)-1H-pyrrole-3-sulfonamide]: the negative logarithm of the IC50 (pIC50) was 4.30 to 5.30. On to `N#Cc1cc(F)c(NS(=O)(=O)c2c[nH]cc2Cc2ccccc2)cc1Cl` [Cpd 439, 4-benzyl-N-(5-chloro-4-cyano-2-fluorophenyl)-1H-pyrrole-3-sulfonamide], for which the pIC50 was greater than 6.30.

Consider `Cc1cc(NS(=O)(=O)c2c[nH]cc2Cc2ccccc2)c(F)cc1C#N` [Cpd 440, 4-benzyl-N-(4-cyano-2-fluoro-5-methylphenyl)-1H-pyrrole-3-sulfonamide], for which the pIC50 was greater than 6.30.
